Laboratory results: the SangsterLogP compilation

Experiment: method code SF-AS, from DOI: 10.1248/cpb.39.1736, PMID: 1777927

Structure (SMILES)	logP
O=C(/C=C/c1ccc(O)c(O)c1)NCCc1ccccc1	2.72
COc1ccc(NC(=O)/C=C/c2ccc(O)c(O)c2)cc1OC	2.3
CCCCCC(O)c1ccc(O)c(O)c1 (stereo not drawn)	2.32
COc1ccc(CCNC(=O)/C=C/c2ccc(O)c(O)c2)cc1OC	2.07
CCCCCCNC(=O)C=Cc1ccc(O)c(O)c1	3.37
CCCCCCNC(=O)c1ccc(O)c(O)c1	2.71
CCCCc1ccc(O)c(O)c1	2.96
COc1ccc(CNC(=O)C=Cc2ccc(O)c(O)c2)cc1OC	1.99
CCCCOC(=O)/C=C/c1ccc(O)c(O)c1	3.53
O=C(/C=C/c1ccc(O)c(O)c1)NCc1ccccc1	2.48
CC(=O)c1ccc2cc(O)c(O)cc2c1	2.32
CCc1ccc2cc(O)c(O)cc2c1	3.25
CCCCC=Cc1ccc(O)c(O)c1	3.82
O=C(/C=C/c1ccc(O)c(O)c1)CCCCCO	1.67
CCCC(=O)C=Cc1ccc(O)c(O)c1	2.61
CCCCNC(=O)c1ccc2cc(O)c(O)cc2c1	2.72
CCOc1ccc2cc(O)c(O)cc2c1	2.7
CCCCCCNC(=O)/C=C/Oc1ccc(O)c(O)c1	3.36
